Laboratory results reported in patent US20100298141A1, “SUBSTITUTED PYRIDINE N-OXIDE HERBICIDES” (E. I. DU PONT DE NEMOURS AND COMPANY, priority 2007, published 2010).

Columns and labels:
barnyardgrass [1] = assay: Test A pre-/postemergence greenhouse test; assay type: in vivo, Echinochloa crus-galli; conditions: for Plant response rating, Barnyardgrass: 0 to 100 scale where 0 is no effect and 100 is complete control; for Barnyardgrass plant response rating: 0 to 100 scale
Summary of the method: (§1)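 Visual injury ratings against untreated controls, taken roughly ten days after treatment in greenhouse. Plants were sprayed postemergence at one- to two-leaf stage (2–10 cm tall); at the same time, seeded loam/sand soil received a directed preemergence spray. Formulation: non-phytotoxic solvent mixture with surfactant.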

crabgrass = assay: Test A pre-/postemergence greenhouse test; assay type: in vivo, Digitaria sanguinalis; conditions: for Plant response rating, Crabgrass, Large: 0 to 100 scale where 0 is no effect and 100 is complete control; for Crabgrass, Large plant response rating: 0 to 100 scale
Summary of the method: as §1

giant foxtail = assay: Test A pre-/postemergence greenhouse test; assay type: in vivo, Setaria faberi; conditions: for Plant response rating, Foxtail, Giant: 0 to 100 scale where 0 is no effect and 100 is complete control; for Foxtail, Giant plant response rating: 0 to 100 scale
Summary of the method: as §1

velvetleaf [2] = assay: Test A pre-/postemergence greenhouse test; assay type: in vivo, Abutilon theophrasti; conditions: for Plant response rating, Velvetleaf: 0 to 100 scale where 0 is no effect and 100 is complete control; for Velvetleaf plant response rating: 0 to 100 scale
Summary of the method: as §1

blackgrass = assay: Test C pre-/postemergence test; assay type: in vivo, Alopecurus myosuroides; conditions: for Plant response rating, Blackgrass: 31 g ai/ha, scale 0 to 100 (0 no effect, 100 complete control)
Summary of the method: (§2)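 Seeds were planted and treated preemergence with test chemical in a non-phytotoxic solvent mixture containing surfactant. Postemergence applications of the same formulation went onto plants 2 to 18 cm tall (1- to 4-leaf stage). A dash marks no test result.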

downy brome = assay: Test C pre-/postemergence test; assay type: in vivo, Bromus tectorum; conditions: for Plant response rating, Bromegrass, Downy: 31 g ai/ha, scale 0 to 100 (0 no effect, 100 complete control)
Summary of the method: as §2

green foxtail = assay: Test C pre-/postemergence test; assay type: in vivo, Setaria viridis; conditions: for Plant response rating, Foxtail, Green: 31 g ai/ha, scale 0 to 100 (0 no effect, 100 complete control)
Summary of the method: as §2

catchweed bedstraw = assay: Test C pre-/postemergence test; assay type: in vivo, Galium aparine; conditions: for Plant response rating, Galium: 31 g ai/ha, scale 0 to 100 (0 no effect, 100 complete control)
Summary of the method: as §2

Surinam grass = assay: Test C pre-/postemergence test; assay type: in vivo, Brachiaria decumbens; conditions: for Plant response rating, Surinam Grass: 31 g ai/ha, scale 0 to 100 (0 no effect, 100 complete control)
Summary of the method: as §2

woolly cupgrass = assay: Test C pre-/postemergence test; assay type: in vivo, Eriochloa villosa; conditions: for Plant response rating, Cupgrass, Woolly: 31 g ai/ha, scale 0 to 100 (0 no effect, 100 complete control)
Summary of the method: as §2

lambsquarters = assay: Test C pre-/postemergence test; assay type: in vivo, Chenopodium album; conditions: for Plant response rating, Lambsquarters: 31 g ai/ha, scale 0 to 100 (0 no effect, 100 complete control)
Summary of the method: as §2

pigweed = assay: Test C pre-/postemergence test; assay type: in vivo, Amaranthus retroflexus; conditions: for Plant response rating, Pigweed: 31 g ai/ha, scale 0 to 100 (0 no effect, 100 complete control)
Summary of the method: as §2

common ragweed = assay: Test C pre-/postemergence test; assay type: in vivo, Ambrosia elation
Summary of the method: as §2

soybean = assay: Test C pre-/postemergence test; assay type: in vivo, Glycine max; conditions: for Plant response rating, Soybean: 31 g ai/ha, scale 0 to 100 (0 no effect, 100 complete control)
Summary of the method: as §2

velvetleaf [3] = assay: Test C pre-/postemergence test; assay type: in vivo, Abutilon theophrasti; conditions: for Plant response rating, Velvetleaf: 31 g ai/ha, scale 0 to 100 (0 no effect, 100 complete control)
Summary of the method: as §2

duck salad = assay: Test C flooded paddy test; assay type: in vivo, Heteranthera limosa; conditions: Flood
Summary of the method: (§3)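 In-water treatment: compound dosed into 3 cm flood over soil, water level unchanged throughout. Controls run alongside; visual assessment at day 13–15.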

barnyardgrass [4] = assay: Test C flooded paddy test; assay type: in vivo, Echinochloa crus-galli; conditions: Flood
Summary of the method: as §3

[5] = Postemergence, 500 g ai/ha, 0 is no effect, 100 is complete control
[6] = Preemergence, 125 g ai/ha, 0 no effect, 100 complete control
[7] = Preemergence, 500 g ai/ha, 0 no effect, 100 complete control
[8] = 62 g ai/ha, Preemergence, scale 0 to 100
[9] = 125 g ai/ha, preemergence, scale 0 (no effect) to 100 (complete control)
[10] = preemergence, 250 g ai/ha, scale 0 (no effect) to 100 (complete control)
[11] = 62 g ai/ha, scale 0 to 100 (0 no effect, 100 complete control)
[12] = 250 g ai/ha, scale 0 to 100, 0 no effect, 100 complete control, 13 to 15 days

SMILES: Cc1cc[n+]([O-])c(S(=O)(=O)Cc2c(C(F)(F)F)nn(C)c2OC(C)C(F)(F)F)c1 (stereo not drawn) [Compound 96]
- Plant response rating, Barnyardgrass (barnyardgrass [1]; Postemergence, 125 g ai/ha): 60
- Barnyardgrass plant response rating (barnyardgrass [1]; [5]): 90
- Barnyardgrass plant response rating (barnyardgrass [1]; [6]): 90
- Plant response rating, Barnyardgrass (barnyardgrass [1]; Preemergence, 500 g ai/ha): 100
- Plant response rating, Crabgrass, Large (crabgrass; Postemergence, 125 g ai/ha): 40
- Crabgrass, Large plant response rating (crabgrass; [5]): 90
- Crabgrass, Large plant response rating (crabgrass; [6]): 80
- Plant response rating, Crabgrass, Large (crabgrass; Preemergence, 500 g ai/ha): 100
- Plant response rating, Foxtail, Giant (giant foxtail; Postemergence, 125 g ai/ha): 70
- Foxtail, Giant plant response rating (giant foxtail; [5]): 80
- Foxtail, Giant plant response rating (giant foxtail; [6]): 100
- Plant response rating, Foxtail, Giant (giant foxtail; Preemergence, 500 g ai/ha): 100
- Plant response rating, Velvetleaf (velvetleaf [2]; Postemergence, 125 g ai/ha): 50
- Velvetleaf plant response rating (velvetleaf [2]; [5]): 60
- Velvetleaf plant response rating (velvetleaf [2]; [6]): 40
- Velvetleaf plant response rating (velvetleaf [2]; [7]): 100
- Blackgrass plant response rating (blackgrass; [8]): 100
- Blackgrass plant response rating (blackgrass; [9]): 100
- Plant response rating, Blackgrass (blackgrass; Preemergence): 65
- Blackgrass plant response rating (blackgrass; [10]): 100
- Bromegrass, Downy plant response rating (downy brome; [8]): 50
- Plant response rating, Bromegrass, Downy (downy brome; Preemergence): 50
- Bromegrass, Downy plant response rating (downy brome; [10]): 55
- Foxtail, Green plant response rating (green foxtail; [8]): 95
- Foxtail, Green plant response rating (green foxtail; [9]): 98
- Plant response rating, Foxtail, Green (green foxtail; Preemergence): 95
- Foxtail, Green plant response rating (green foxtail; [10]): 100
- Galium plant response rating (catchweed bedstraw; [8]): 80
- Galium plant response rating (catchweed bedstraw; [9]): 98
- Plant response rating, Galium (catchweed bedstraw; Preemergence): 0
- Galium plant response rating (catchweed bedstraw; [10]): 100
- Surinam Grass plant response rating (Surinam grass; [8]): 80
- Surinam Grass plant response rating (Surinam grass; [9]): 100
- Plant response rating, Surinam Grass (Surinam grass; Preemergence): 75
- Surinam Grass plant response rating (Surinam grass; [10]): 100
- Cupgrass, Woolly plant response rating (woolly cupgrass; [8]): 70
- Cupgrass, Woolly plant response rating (woolly cupgrass; [9]): 95
- Plant response rating, Cupgrass, Woolly (woolly cupgrass; Preemergence): 50
- Cupgrass, Woolly plant response rating (woolly cupgrass; [10]): 98
- Lambsquarters plant response rating (lambsquarters; [8]): 100
- Lambsquarters plant response rating (lambsquarters; [9]): 100
- Plant response rating, Lambsquarters (lambsquarters; Preemergence): 50
- Lambsquarters plant response rating (lambsquarters; [10]): 100
- Pigweed plant response rating (pigweed; [8]): 70
- Pigweed plant response rating (pigweed; [9]): 70
- Plant response rating, Pigweed (pigweed; Preemergence): 10
- Pigweed plant response rating (pigweed; [10]): 100
- Ragweed plant response rating (common ragweed; [8]): 20
- Ragweed plant response rating (common ragweed; [9]): 100
- Plant response rating, Ragweed (common ragweed; Preemergence, 31 g ai/ha, scale 0 to 100 (0 no effect, 100 complete control)): 20
- Ragweed plant response rating (common ragweed; [10]): 100
- Soybean plant response rating (soybean; [8]): 20
- Soybean plant response rating (soybean; [9]): 40
- Plant response rating, Soybean (soybean; Preemergence): 20
- Soybean plant response rating (soybean; [10]): 70
- Velvetleaf plant response rating (velvetleaf [3]; [8]): 30
- Velvetleaf plant response rating (velvetleaf [3]; [9]): 40
- Plant response rating, Velvetleaf (velvetleaf [3]; Preemergence): 0
- Velvetleaf plant response rating (velvetleaf [3]; [10]): 90
- Plant response rating, Ducksalad (duck salad; [11]): 0
- Plant response rating, Ducksalad (duck salad; [12]): 55
- Plant response rating, Barnyardgrass (barnyardgrass [4]; [11]): 0
- Plant response rating, Barnyardgrass (barnyardgrass [4]; [12]): 0

SMILES: Cc1cc[n+]([O-])c(S(=O)(=O)Cc2c(C(F)(F)C(F)(F)F)nn(C)c2OCC(F)(F)F)c1 [Compound 99]
- Plant response rating, Barnyardgrass (barnyardgrass [1]; Postemergence, 125 g ai/ha): 60
- Barnyardgrass plant response rating (barnyardgrass [1]; [5]): 80
- Barnyardgrass plant response rating (barnyardgrass [1]; [6]): 70
- Barnyardgrass plant response rating (barnyardgrass [1]; [7]): 100
- Plant response rating, Crabgrass, Large (crabgrass; Postemergence, 125 g ai/ha): 60
- Crabgrass, Large plant response rating (crabgrass; [5]): 80
- Crabgrass, Large plant response rating (crabgrass; [6]): 80
- Crabgrass, Large plant response rating (crabgrass; [7]): 100
- Plant response rating, Foxtail, Giant (giant foxtail; Postemergence, 125 g ai/ha): 70
- Foxtail, Giant plant response rating (giant foxtail; [5]): 80
- Foxtail, Giant plant response rating (giant foxtail; [6]): 90
- Foxtail, Giant plant response rating (giant foxtail; [7]): 100
- Plant response rating, Velvetleaf (velvetleaf [2]; Postemergence, 125 g ai/ha): 30
- Velvetleaf plant response rating (velvetleaf [2]; [5]): 60
- Velvetleaf plant response rating (velvetleaf [2]; [6]): 20
- Velvetleaf plant response rating (velvetleaf [2]; [7]): 100
- Blackgrass plant response rating (blackgrass; [8]): 100
- Blackgrass plant response rating (blackgrass; [9]): 100
- Plant response rating, Blackgrass (blackgrass; Preemergence): 80
- Blackgrass plant response rating (blackgrass; [10]): 100
- Bromegrass, Downy plant response rating (downy brome; [8]): 50
- Bromegrass, Downy plant response rating (downy brome; [9]): 60
- Plant response rating, Bromegrass, Downy (downy brome; Preemergence): 30
- Bromegrass, Downy plant response rating (downy brome; [10]): 70
- Foxtail, Green plant response rating (green foxtail; [8]): 80
- Foxtail, Green plant response rating (green foxtail; [9]): 100
- Plant response rating, Foxtail, Green (green foxtail; Preemergence): 80
- Foxtail, Green plant response rating (green foxtail; [10]): 100
- Galium plant response rating (catchweed bedstraw; [8]): 100
- Galium plant response rating (catchweed bedstraw; [9]): 100
- Plant response rating, Galium (catchweed bedstraw; Preemergence): 100
- Galium plant response rating (catchweed bedstraw; [10]): 100
- Surinam Grass plant response rating (Surinam grass; [8]): 75
- Surinam Grass plant response rating (Surinam grass; [9]): 95
- Plant response rating, Surinam Grass (Surinam grass; Preemergence): 0
- Surinam Grass plant response rating (Surinam grass; [10]): 95
- Cupgrass, Woolly plant response rating (woolly cupgrass; [8]): 0
- Cupgrass, Woolly plant response rating (woolly cupgrass; [9]): 70
- Plant response rating, Cupgrass, Woolly (woolly cupgrass; Preemergence): 0
- Cupgrass, Woolly plant response rating (woolly cupgrass; [10]): 85
- Lambsquarters plant response rating (lambsquarters; [8]): 100
- Lambsquarters plant response rating (lambsquarters; [9]): 100
- Plant response rating, Lambsquarters (lambsquarters; Preemergence): 100
- Lambsquarters plant response rating (lambsquarters; [10]): 100
- Pigweed plant response rating (pigweed; [8]): 100
- Pigweed plant response rating (pigweed; [9]): 100
- Plant response rating, Pigweed (pigweed; Preemergence): 100
- Pigweed plant response rating (pigweed; [10]): 100
- Ragweed plant response rating (common ragweed; [8]): 100
- Ragweed plant response rating (common ragweed; [9]): 100
- Ragweed plant response rating (common ragweed; [10]): 100
- Soybean plant response rating (soybean; [8]): 25
- Soybean plant response rating (soybean; [9]): 30
- Plant response rating, Soybean (soybean; Preemergence): 0
- Soybean plant response rating (soybean; [10]): 98
- Velvetleaf plant response rating (velvetleaf [3]; [8]): 80
- Velvetleaf plant response rating (velvetleaf [3]; [9]): 100
- Plant response rating, Velvetleaf (velvetleaf [3]; Preemergence): 0
- Velvetleaf plant response rating (velvetleaf [3]; [10]): 100
- Plant response rating, Ducksalad (duck salad; [11]): 0
- Plant response rating, Ducksalad (duck salad; [12]): 65
- Plant response rating, Barnyardgrass (barnyardgrass [4]; [11]): 0
- Plant response rating, Barnyardgrass (barnyardgrass [4]; [12]): 20
